The text below walks through data of patent US20060063747A1, “Paroxetine cholate or cholic acid derivative salts, and composition comprising paroxetine and cholic acid or derivative thereof” (priority 2004, published 2006).

The nature of the series: Stability comparison under severe conditions (0.3% hydrogen peroxide, 80° C., content by HPLC). Type of series: physicochemical. The conditions noted are these: for Drug content, 24 hrs / Drug content, 72 hrs / Drug content, 144 hrs / Drug content, Initial / Drug content, 48 hrs / Drug content, 120 hrs: 1 mg/mL in 0.3% hydrogen peroxide, chamber at 80° C. The protocol:
Each of the drugs shown in Table 5 was completely dissolved in a 0.3% hydrogen peroxide solution at a concentration of 1 mg/mL. While storage under stressed conditions at 80° C., changes in the contents of the drugs were monitored. The 0.3% hydrogen peroxide solution is a solution commonly used to quickly determine the stability of drugs and provides stressed conditions for artificial acceleration of the oxidation of the drugs. The content analysis was conducted by HPLC in accordance with the paroxetine content analysis defined in USP.

Where a name gives a salt, the structure may show the parent alone.

Turning to `Fc1ccc([C@@H]2CCNC[C@H]2COc2ccc3c(c2)OCO3)cc1.Fc1ccc([C@@H]2CCNC[C@H]2COc2ccc3c(c2)OCO3)cc1.O.O=C(O)C(O)C(O)C(=O)O.O=C(O)C(O)C(O)C(=O)O` [Paroxetine tartarate], the “Drug content, 24 hrs” value stood at 81.3%; the “Drug content, 72 hrs” value is reported as 28.3%; the “Drug content, 144 hrs” value came to 4.8%; the “Drug content, Initial” value was determined as 100.0%.
Regarding `Fc1ccc([C@@H]2CCNC[C@H]2COc2ccc3c(c2)OCO3)cc1.O=C(O)[C@H]1OC(O)[C@H](O)[C@@H](O)[C@@H]1O` [Paroxetine glucuronate], the “Drug content, 24 hrs” value is reported as 92.8%; the “Drug content, 48 hrs” value came out at 59.0%; the “Drug content, 120 hrs” value is reported as 12.3%; the “Drug content, Initial” value was 100.0%.
As for `C[C@H](CCC(=O)NCC(=O)O)[C@H]1CC[C@H]2[C@@H]3[C@H](O)C[C@@H]4C[C@H](O)CC[C@]4(C)[C@H]3C[C@H](O)[C@]12C.Fc1ccc([C@@H]2CCNC[C@H]2COc2ccc3c(c2)OCO3)cc1` [Paroxetine glycocholate, paroxetine glycocholate], the “Drug content, 24 hrs” value was 96.8%; the “Drug content, 48 hrs” value is 89.6%; the “Drug content, 120 hrs” value was 54.3%; the “Drug content, Initial” value is listed as 100.0%. Also, the “Stability compared to other paroxetine salts (in words)” value (0.3% hydrogen peroxide, 80° C., HPLC) is listed as “highly stable”.
Turning to `Fc1ccc([C@@H]2CCNC[C@H]2COc2ccc3c(c2)OCO3)cc1.O=S(=O)(O)c1ccc2ccccc2c1` [Paroxetine napsylate], the “Drug content, 24 hrs” value is reported as 60.4%; the “Drug content, 72 hrs” value turned out to be 16.1%; the “Drug content, 144 hrs” value came out at 3.5%; the “Drug content, Initial” value came to 100.0%.
With paroxetine methanesulfonate, the “Drug content, 24 hrs” value is reported as 74.4%; the “Drug content, 48 hrs” value was 31.8%; the “Drug content, 72 hrs” value is given as 16.6%; the “Drug content, Initial” value is given as 100.0%.
As for `Fc1ccc([C@@H]2CCNC[C@H]2COc2ccc3c(c2)OCO3)cc1` [Paroxetine HCl, paroxetine hydrochloride], the “Drug content, 24 hrs” value came to 84.5% and the “Drug content, Initial” value worked out at 100.0%. In addition, under “hydrochloride”, the “Drug content, 48 hrs” value turned out to be 53.8% and the “Drug content, 120 hrs” value was determined as 13.4%.
